This passage reports inhibition and half-life results from ChEMBL document CHEMBL5506055, “Hit-to-Lead Optimization of the Natural Product Oridonin as Novel NLRP3 Inflammasome Inhibitors with Potent Anti-Inflammation Activity” (J Med Chem, 2024).

Series [1] addresses NACHT, LRR and PYD domains-containing protein 3 (Mus musculus) (UniProt Q8R4B8). Description: Inhibition of NLRP3 inflammasome activation in LPS/ATP-induced C57BL/6 mouse BMDMs assessed as reduction in NLRP3 expression preincubated with compound prior to LPS addition for 30 mins and further stimulated with ATP for 30 mins by Western blotting analysis. Format: cell-based. The following applies: BMDM, dose 50-200 nM, time 60.0 min. On the technique in general: Immunoblotting shows a protein as a band on a membrane.

For series [2] the target is unchanged. As to the kind of experiment: Inhibition of NLRP3 inflammasome activation in LPS-induced C57BL/6 mouse BMDMs assessed as effect on p65 expression at 50 to 200 nM preincubated for 24 hrs followed by LPS addition for 4 hrs by Western blotting analysis. Format: cell-based. To be noted: BMDM, dose 50-200 nM, time 28.0 hrs.
For series [3] the target is unchanged. As to the kind of experiment: Inhibition of NLRP3 inflammasome activation in LPS/ATP-induced C57BL/6 mouse BMDMs assessed as inhibition of ASC oligomerization by measuring reduction in ASC expression at 50 to 200 nM preincubated with LPS for 4 hrs followed by compound addition for 30 mins and further stimulated with ATP for 30 mins by Western blotting analysis. The following applies: BMDM, dose 50-200 nM, time 1.0 hrs. Format: cell-based.

For series [4], the target named is Nlrp3/Pycard (Mus musculus) (UniProt Q8R4B8+Q9EPB4). As to the kind of experiment: Inhibition of NLRP3/ASC protein-protein interaction in LPS/ATP-induced C57BL/6 mouse BMDMs at 200 nM preincubated with LPS for 4 hrs followed by compound addition for 30 mins and further stimulated with ATP for 30 mins by Western blotting analysis. It counts as cell-based. The following applies: BMDM, time 1.0 hrs.
Chain of Nlrp3/Pycard (Mus musculus) (Q8R4B8 whole entry, looked up): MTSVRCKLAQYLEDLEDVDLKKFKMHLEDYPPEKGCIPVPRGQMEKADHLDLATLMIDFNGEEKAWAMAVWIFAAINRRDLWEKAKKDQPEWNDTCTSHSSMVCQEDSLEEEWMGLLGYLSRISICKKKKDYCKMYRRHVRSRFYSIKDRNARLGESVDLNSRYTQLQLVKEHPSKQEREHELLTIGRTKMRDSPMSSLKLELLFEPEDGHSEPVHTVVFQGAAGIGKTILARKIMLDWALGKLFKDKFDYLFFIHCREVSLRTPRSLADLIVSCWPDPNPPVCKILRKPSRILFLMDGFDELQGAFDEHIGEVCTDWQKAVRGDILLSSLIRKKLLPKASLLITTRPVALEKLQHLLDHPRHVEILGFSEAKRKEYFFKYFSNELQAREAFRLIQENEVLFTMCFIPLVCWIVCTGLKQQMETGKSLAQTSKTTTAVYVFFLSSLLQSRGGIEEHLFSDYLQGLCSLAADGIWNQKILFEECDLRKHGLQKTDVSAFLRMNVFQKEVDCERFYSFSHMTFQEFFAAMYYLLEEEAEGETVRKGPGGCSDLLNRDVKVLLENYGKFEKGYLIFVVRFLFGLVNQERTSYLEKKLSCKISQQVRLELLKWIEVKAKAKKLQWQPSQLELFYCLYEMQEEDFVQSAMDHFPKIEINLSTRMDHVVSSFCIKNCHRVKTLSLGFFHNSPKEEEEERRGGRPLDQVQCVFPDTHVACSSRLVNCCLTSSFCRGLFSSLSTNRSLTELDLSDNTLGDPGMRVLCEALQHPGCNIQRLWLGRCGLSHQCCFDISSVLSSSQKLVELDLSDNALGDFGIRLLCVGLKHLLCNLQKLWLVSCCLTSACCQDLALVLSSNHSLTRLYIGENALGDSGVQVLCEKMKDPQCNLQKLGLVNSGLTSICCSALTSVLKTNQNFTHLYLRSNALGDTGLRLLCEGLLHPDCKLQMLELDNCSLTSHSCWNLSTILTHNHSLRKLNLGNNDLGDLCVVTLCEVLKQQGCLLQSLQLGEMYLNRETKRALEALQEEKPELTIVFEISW
Chain of Nlrp3/Pycard (Mus musculus) (Q9EPB4 whole entry, looked up): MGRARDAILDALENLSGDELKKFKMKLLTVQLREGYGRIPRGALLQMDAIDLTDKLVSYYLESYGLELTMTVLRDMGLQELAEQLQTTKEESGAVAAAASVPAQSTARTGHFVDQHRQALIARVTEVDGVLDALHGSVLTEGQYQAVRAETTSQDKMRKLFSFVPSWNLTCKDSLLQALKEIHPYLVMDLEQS

The nature of series [5]: Stability in human liver microsomes assessed as half life preincubated for 5 mins with NADPH followed by compound addition and measured upto 120 mins by LC-MS/MS analysis. To be noted: time < 125 min. It counts as ADME, Microsome. (In general: Liver microsomes are a subcellular fraction often used to study metabolism.)

Active and inactive are the calls of the source. No cut-off for these calls is given here.

Chain of NACHT, LRR and PYD domains-containing protein 3 (Mus musculus) (Q8R4B8 whole entry, the tested form may be a part): as the sequence (Q8R4B8 whole entry, looked up) above

As for `C=C1C(=O)[C@]23[C@H](O)[C@H]1CC[C@H]2[C@]12C=CCC(C)(C)[C@H]1[C@H](O)[C@@]3(OCCC(=O)O)OC2`, the inhibition result in series [1], in series [2] and in series [3] was “inactive” each time. In series [4], the inhibition result was “Active”. The half-life (usually how long it takes for the measured level to halve) in series [5] stood at 3.03 h.
